# Measurements: ChEMBL document CHEMBL5338747, “Discovery of Quaternized Pyridine-Thiazole-Pleuromutilin Derivatives with Broad-Spectrum Antibacterial and Potent Anti-MRSA Activity” (J Med Chem, 2023)
# The source made the active and inactive calls. The rule behind the calls is not given here.
# Tests used:
# Staphylococcus aureus [1] = assay: Antibacterial activity against methicillin-resistant Staphylococcus aureus ATCC 33591 assessed as inhibition of bacterial growth incubated for 24 hrs by broth microdilution method; format: functional
# [2] = system: Staphylococcus epidermidis; assay: Antibacterial activity against methicillin-resistant Staphylococcus epidermidis ATCC 51625 assessed as inhibition of bacterial growth incubated for 24 hrs by broth microdilution method; format: functional
# Escherichia coli [3] = assay: Antibacterial activity against Escherichia coli CMCC 44103 assessed as inhibition of bacterial growth incubated for 24 hrs by broth microdilution method; format: functional
# Staphylococcus aureus [4] = assay: Antibacterial activity against methicillin-resistant Staphylococcus aureus 575 assessed as inhibition of bacterial growth incubated for 24 hrs by broth microdilution method; format: functional
# Staphylococcus aureus [5] = assay: Antibacterial activity against methicillin-resistant Staphylococcus aureus 206 assessed as inhibition of bacterial growth incubated for 24 hrs by broth microdilution method; format: functional
# Staphylococcus aureus [6] = assay: Antibacterial activity against methicillin-resistant Staphylococcus aureus 222 assessed as inhibition of bacterial growth incubated for 24 hrs by broth microdilution method; format: functional
# Pseudomonas aeruginosa = assay: Antibacterial activity against multidrug-resistant Pseudomonas aeruginosa 126 assessed as inhibition of bacterial growth incubated for 24 hrs by broth microdilution method; format: functional
# Klebsiella pneumoniae = assay: Antibacterial activity against multidrug-resistant Klebsiella pneumoniae 893 assessed as inhibition of bacterial growth incubated for 24 hrs by broth microdilution method; format: functional
# Mesomycoplasma hyorhinis = assay: Anti-mycoplasma activity against Mycoplasma hyorhinis BTS-7 NCTC10130 assessed as inhibition of mycoplasma growth measured after 7 days by broth microdilution method; format: functional; settings: BTS-7 NCTC10130, 168 h, time 7 day
# Mycoplasmopsis synoviae [7] = assay: Anti-mycoplasma activity against Mycoplasma synoviae WVU1853 NCTC10124 assessed as inhibition of mycoplasma growth measured after 7 days by broth microdilution method; format: functional; settings: WVU1853 NCTC10124, 168 h, time 7 day
# [8] = system: Mycoplasmoides pneumoniae; assay: Anti-mycoplasma activity against Mycoplasma pneumoniae M129 ATCC15531 assessed as inhibition of mycoplasma growth measured after 7 days by broth microdilution method; format: functional; settings: M129 ATCC15531, 168 h, time 7 day
# [9] = system: Mycoplasmoides gallisepticum; assay: Potency index, ratio of tiamulin MIC to test compound MIC against anti-mycoplasma activity against Mycoplasma gallisepticum R NCTC10115; format: functional
# Mycoplasmopsis synoviae [10] = assay: Potency index, ratio of tiamulin MIC to test compound MIC against anti-mycoplasma activity against Mycoplasma synoviae WVU1853 NCTC10124; format: functional
# Staphylococcus aureus [11] = assay: Bactericidal activity against methicillin-resistant Staphylococcus aureus ATCC 33591 assessed as reduction in bacterial colonies formation at 2XMIC incubated for 12 hrs in MHB followed by culturing on agar plate for 24 hrs by time-kill kinetics based analysis; format: functional; parameters: scale not given: the % may be the effect or the level left; settings: time 36 hrs
# Staphylococcus aureus [12] = assay: Bactericidal activity against methicillin-resistant Staphylococcus aureus ATCC 33591 assessed as reduction in bacterial colonies formation at 4XMIC incubated for 8 hrs in MHB followed by culturing on agar plate for 24 hrs by time-kill kinetics based analysis; format: functional; parameters: scale not given: the % may be the effect or the level left; settings: time 32 hrs
# Escherichia coli [13] = assay: Bactericidal activity against Escherichia coli ATCC 25922 assessed as reduction in bacterial colonies formation at 4XMIC incubated for 4 hrs in MHB followed by culturing on agar plate for 24 hrs by time-kill kinetics based analysis; format: functional; parameters: scale not given: the % may be the effect or the level left; settings: time 28 hrs
# Cell membrane [14] = assay: Disruption of bacterial cell membrane in methicillin-resistant Staphylococcus aureus ATCC 33591 assessed as increase in fluorescence intensity at 8XMIC measured within 3 mins by DiBAC4(3) dye based fluorescence analysis relative to control; format: subcellular
# Cell membrane [15] = assay: Disruption of bacterial cell membrane in Escherichia coli ATCC 25922 assessed as increase in fluorescence intensity at 8XMIC measured within 3 mins by DiBAC4(3) dye based fluorescence analysis relative to control
# Cell membrane [16] = assay: Disruption of bacterial cell membrane in methicillin-resistant Staphylococcus aureus ATCC 33591 assessed as reduction in green fluorescence intensity at MIC incubated for 2 hrs by MycoLightGreen1198/PI staining based confocal laser scanning microscopy; format: subcellular
# Cell membrane [17] = assay: Disruption of bacterial cell membrane in Escherichia coli ATCC 25922 assessed as reduction in green fluorescence intensity at MIC incubated for 2 hrs by MycoLightGreen1198/PI staining based confocal laser scanning microscopy
# Cell membrane [18] = assay: Disruption of bacterial cell membrane in Escherichia coli ATCC 25922 assessed as increase in red fluorescence intensity at MIC incubated for 2 hrs by MycoLightGreen1198/PI staining based confocal laser scanning microscopy
# Cell membrane [19] = assay: Disruption of bacterial cell membrane in Escherichia coli ATCC 25922 assessed as increase in red fluorescence intensity at 4XMIC incubated for 2 hrs by MycoLightGreen1198/PI staining based confocal laser scanning microscopy
# Cell membrane [20] = assay: Disruption of bacterial cell membrane in Escherichia coli ATCC 25922 assessed as increase in number of surface folds and atrophy at MIC incubated for 4 hrs by FESEM analysis
# Cell membrane [21] = assay: Disruption of bacterial cell membrane in Escherichia coli ATCC 25922 assessed as severe depression on the cell surface,cell rupture and leakage of intracellular components at 4XMIC incubated for 4 hrs by FESEM analysis; format: subcellular
# Staphylococcus aureus [22] = assay: Antibacterial activity against methicillin-resistant Staphylococcus aureus ATCC 33591 infected in ip dosed Kunming mouse assessed as protection against bacterial infection administered for 7 days starting from 1 hr post-infection; format: functional
# Staphylococcus aureus [23] = assay: Antibacterial activity against methicillin-resistant Staphylococcus aureus ATCC 33591 infected in Kunming mouse assessed as animal survival rate at 5 mg/kg, ip for 7 days starting from 1 hr post-infection; format: functional; settings: ATCC 33591, 168 h, time 7 day
# Staphylococcus aureus [24] = assay: Antibacterial activity against methicillin-resistant Staphylococcus aureus ATCC 33591 infected in Kunming mouse assessed as animal survival rate at 10 mg/kg, ip for 7 days starting from 1 hr post-infection; format: functional; settings: ATCC 33591, 168 h, time 7 day
# Staphylococcus aureus [25] = assay: Antibacterial activity against methicillin-resistant Staphylococcus aureus ATCC 33591 infected in Kunming mouse assessed as reduction in inflammatory cell infiltration in lungs at 3 to 10 mg/kg, ip for 2 days starting from 1 hr post-infection by hematoxylin-eosin staining based analysis; format: functional, organism-based; settings: dose 3-10 mg/kg, time 2.0 day
# [26] = Metabolic stability in Sprague-Dawley rat assessed as parent compound remaining at 3 mg/kg, po measured after 10 mins by LC-MS analysis; format: ADME, organism-based; settings: in vivo, read-out: Stability
# [27] = Cmax in Sprague-Dawley rat at 1 mg/kg, iv by LC-MS analysis; format: ADME, organism-based; parameters: dose 1 mg/kg, route iv; settings: in vivo
# [28] = MRT in Sprague-Dawley rat at 1 mg/kg, iv by LC-MS analysis; format: ADME, organism-based; settings: in vivo
# [29] = Clearance in Sprague-Dawley rat at 1 mg/kg, iv by LC-MS analysis; format: ADME, organism-based; settings: in vivo
# [30] = Drug metabolism in Sprague-Dawley rat plasma assessed as metabolite formation at 10 mg/kg, iv measured after 1 hr by UPLC/Q-TOF-MS analysis; format: ADME, organism-based; settings: in vivo
# Staphylococcus aureus [31] = assay: Potency index, ratio of moxifloxacin MIC to test compound MIC for antibacterial activity against methicillin-resistant Staphylococcus aureus 171; format: functional
# Cell membrane [32] = assay: Disruption of bacterial cell membrane in methicillin-resistant Staphylococcus aureus ATCC 33591 incubated for 4 hrs by FESEM analysis; format: subcellular
structure (smiles),measurement,setting,value
C=C[C@]1(C)C[C@@H](OC(=O)CSc2nc(-c3cc[n+](Cc4ccc(C)cc4)cc3)cs2)[C@]2(C)[C@H](C)CC[C@]3(CCC(=O)[C@H]32)[C@@H](C)[C@@H]1O.[Br-],MIC,Staphylococcus aureus [1],1 µg/mL
same,MIC,[2],1 µg/mL
same,MIC,Escherichia coli [3],0.5 µg/mL
same,MIC,Staphylococcus aureus [4],8 µg/mL
same,MIC,Staphylococcus aureus [5],2 µg/mL
same,MIC,Staphylococcus aureus [6],1 µg/mL
same,MIC,Pseudomonas aeruginosa,64 µg/mL
same,MIC,Klebsiella pneumoniae,16 µg/mL
same,MIC,Mesomycoplasma hyorhinis,0.008 µg/mL
same,MIC,Mycoplasmopsis synoviae [7],0.015 µg/mL
same,MIC,[8],0.03 µg/mL
same,Ratio,[9],10
same,Ratio,Mycoplasmopsis synoviae [10],10
same,Activity,Staphylococcus aureus [11],100%
same,Activity,Staphylococcus aureus [12],100%
same,Activity,Escherichia coli [13],100%
same,fold change (FC),Cell membrane [14],6
same,fold change (FC),Cell membrane [15],6
same,Activity,Cell membrane [16],Active
same,Activity,Cell membrane [17],Active
same,Activity,Cell membrane [18],Active
same,Activity,Cell membrane [19],100%
same,Activity,Cell membrane [20],Active
same,Activity,Cell membrane [21],Active
same,ED50,"Staphylococcus aureus [22]; ATCC 33591, 168 h, time 7 day",4.94 mg/kg
same,Activity,Staphylococcus aureus [22]; time 7.0 day,Dose-Dependent Effect
same,survival at 5 mg/kg,Staphylococcus aureus [23],57.1%
same,survival at 10 mg/kg,Staphylococcus aureus [24],71.4%
same,Activity,Staphylococcus aureus [25],Active
same,remaining at 10 min,[26],0%
same,Cmax,[27],9670 ng/mL
same,MRT,[28],34.8 min
same,clearance,[29],31.7 mL/min/kg
same,Drug metabolism,[30],Metabolite_Detected
same,Ratio,Staphylococcus aureus [31],8
same,Activity,Cell membrane [32],Dose-Dependent Effect
